Laboratory results taken from patent US20100168197A1, “MUSCARINIC RECEPTOR ANTAGONISTS” (priority 2007, published 2010).

System: Guinea Pig trachea
Experiment: In-vitro functional assay, carbachol-contracted isolated trachea
Conditions: Cavia porcellus; isolated tissue, 1 μM carbachol contraction; range stated for the group of tested compounds
Description: The contractile results are expressed as % of control E max. ED50 values are calculated by fitting a non-linear regression curve (Graph Pad Prism). pKb values are calculated by the formula pKb=−log [(molar concentration of antagonist/(dose ratio−1))]
where, dose ratio=ED50 in the presence of antagonist/ED50 in the absence of antagonist.
The Guinea Pig (400-600 gm) was procured and trachea was removed under anesthesia (sodium pentobarbital, 300 mg/kg i.p) and was immediately kept it in ice-cold Krebs Henseleit buffer. Indomethacin (10 μM) was present throughout the KH buffer to prevent the formation of bronchoactive prostanoids.
The tissue of adherent fascia was cleaned and was cut into strips of equal size (with approximately 4-5 tracheal rings in each strip). The epithelium was removed by careful rubbing, minimizing damage to the smooth muscle. […] Opposite ends of the cut rings were tied with the help of a thread. The tissue was mounted in isolated tissue baths containing 10 ml Krebs Henseleit buffer maintained at 37° C. and bubbled with carbogen, at a basal tension of 1 gm. The buffer was changed 4-5 times for about an hour. The tissue was equilibrated for 1 hour for stabilization. After 1 hour, the tissue was challenged with 1 μM carbachol. This was repeated after every 2-3 washes till two similar consecutive responses were obtained. At the end of stabilization, the tissue was washed for 30 minutes followed by incubation with suboptimal dose of MRA/Vehicle for 20 minutes prior to contraction of the tissues with 1 μM carbachol. The contractile response of tissues was recorded either on Powerlab data acquisition system or on Grass polygraph (Model 7). The relaxation was expressed as percentage of maximum carbachol response. The data was expressed as mean±s.e. mean for n observations. The EC50 was calculated as the concentration producing 50% of the maximum relaxation to 1 μM carbachol. The percent relaxation was compared between the treated and control tissues using non-parametric unpaired t-test. A p value of <0.05 was considered to be statistically significant.

Row | Structure (SMILES) | Kb
1 | Cc1n(CCCOC(=O)[C@](O)(c2ccccc2)[C@@H]2CCCC(F)(F)C2)cc[n+]1C [Compound No. 5, 1-[3-({(2R)-2-[(1R)-3,3-Difluorocyclohexyl]-2-hydroxy-2-phenylacetyl}oxy)propyl]-2,3-dimethyl-1H-imidazol-3-ium iodide] | 0.1 to 3.16 nM
2 | Cc1n(CCCOC(=O)C(O)(c2ccccc2)C2CCCCCC2)cc[n+]1C (centres unmarked) [Compound No. 6, 1-(3-{[Cycloheptyl(hydroxy)phenylacetyl]oxy}propyl)-2,3-dimethyl-1H-imidazol-3-ium iodide] | 0.1 to 3.16 nM
3 | Cc1n(CCCOC(=O)[C@](O)(c2ccccc2)[C@@H]2CCCC(F)(F)C2)cc[n+]1Cc1ccc(Br)cc1 [Compound No. 9, 3-(4-Bromobenzyl)-1-[3-({(2R)-2-[(1R)-3,3-difluorocyclohexyl]-2-hydroxy-2-phenylacetyl}oxy)propyl]-2-methyl-1H-imidazol-3-ium bromide] | 0.1 to 3.16 nM
4 | Cc1n(CCCOC(=O)[C@](O)(c2ccccc2)[C@@H]2CCC(F)(F)C2)cc[n+]1Cc1ccc(F)cc1 [Compound No. 13, 1-[3-({(2R)-2-[(1R)-3,3-Difluorocyclopentyl]-2-hydroxy-2-phenylacetyl}oxy)propyl]-3-(4-fluorobenzyl)-2-methyl-1H-imidazol-3-ium bromide] | 0.1 to 3.16 nM
5 | Cc1n(CCOC(=O)[C@](O)(c2ccccc2)[C@@H]2CCC(F)(F)C2)cc[n+]1Cc1ccccc1 [Compound No. 17, 3-Benzyl-1-[2-({(2R)-2-[(1R)-3,3-difluorocyclopentyl]-2-hydroxy-2-phenylacetyl}oxy)ethyl]-2-methyl-1H-imidazol-3-ium chloride] | 0.1 to 3.16 nM
6 | Cc1n(CCOC(=O)[C@](O)(c2ccccc2)[C@@H]2CCC(F)(F)C2)cc[n+]1C [Compound No. 19, 1-[2-({(2R)-2-[(1R)-3,3-Difluorocyclopentyl]-2-hydroxy-2-phenylacetyl}oxy)ethyl]-2,3-dimethyl-1H-imidazol-3-ium bromide] | 0.1 to 3.16 nM
7 | CC[n+]1ccn(CCCOC(=O)[C@](O)(c2ccccc2)[C@@H]2CCC(F)(F)C2)c1C [Compound No. 21, 1-[3-({(2R)-2-[(1R)-3,3-Difluorocyclopentyl]-2-hydroxy-2-phenylacetyl}oxy)propyl]-3-ethyl-2-methyl-1H-imidazol-3-ium iodide] | 0.1 to 3.16 nM
8 | Cc1n(CCCOC(=O)[C@](O)(c2ccccc2)[C@@H]2CCC(F)(F)C2)cc[n+]1CC1CC1 [Compound No. 22, 3-(Cyclopropylmethyl)-1-[3-({(2R)-2-[(1R)-3,3-difluorocyclopentyl]-2-hydroxy-2-phenylacetyl}oxy)propyl]-2-methyl-1H-imidazol-3-ium bromide] | 0.1 to 3.16 nM
9 | Cc1n(CCCOC(=O)[C@](O)(c2ccccc2)[C@@H]2CCC(F)(F)C2)cc[n+]1CC1CCCCC1 [Compound No. 23, 3-(Cyclohexylmethyl)-1-[3-({(2R)-2-[(1R)-3,3-difluorocyclopentyl]-2-hydroxy-2-phenylacetyl}oxy)propyl]-2-methyl-1H-imidazol-3-ium bromide] | 0.1 to 3.16 nM
10 | Cc1n(CCCOC(=O)[C@](O)(c2ccccc2)[C@@H]2CCC(F)(F)C2)cc[n+]1Cc1ccccc1 [Compound No. 28, 3-Benzyl-1-[3-({(2R)-2-[(1R)-3,3-difluorocyclopentyl]-2-hydroxy-2-phenylacetyl}oxy)propyl]-2-methyl-1H-imidazol-3-ium chloride] | 0.1 to 3.16 nM
11 | Cc1n(CCCOC(=O)[C@](O)(c2ccccc2)[C@@H]2CCC(F)(F)C2)cc[n+]1CCc1ccccc1 [Compound No. 29, 1-[3-({(2R)-2-[(1R)-3,3-Difluorocyclopentyl]-2-hydroxy-2-phenylacetyl}oxy)propyl]-2-methyl-3-(2-phenylethyl)-1H-imidazol-3-ium bromide] | 0.1 to 3.16 nM
12 | Cc1n(CCCOC(=O)[C@](O)(c2ccccc2)[C@@H]2CCC(F)(F)C2)cc[n+]1C [Compound No. 30, 1-[3-({(2R)-2-[(1R)-3,3-Difluorocyclopentyl]-2-hydroxy-2-phenylacetyl}oxy)propyl]-2,3-dimethyl-1H-imidazol-3-ium bromide] | 0.1 to 3.16 nM
13 | Cc1n(CCCOC(=O)[C@](O)(c2ccccc2)[C@@H]2CCCC(F)(F)C2)cc[n+]1Cc1ccc(F)cc1 [Compound No. 31, 1-[3-({(2R)-2-[(1R)-3,3-Difluorocyclohexyl]-2-hydroxy-2-phenylacetyl}oxy)propyl]-3-(4-fluorobenzyl)-2-methyl-1H-imidazol-3-ium bromide] | 0.1 to 3.16 nM
14 | Cc1n(CCCOC(=O)[C@](O)(c2ccccc2)[C@@H]2CCCC(F)(F)C2)cc[n+]1Cc1ccccc1 [Compound No. 37, 3-Benzyl-1-[3-({(2R)-2-[(1R)-3,3-difluorocyclohexyl]-2-hydroxy-2-phenylacetyl}oxy)propyl]-2-methyl-1H-imidazol-3-ium chloride] | 0.1 to 3.16 nM
15 | CCCC[n+]1ccn(CCCOC(=O)[C@](O)(c2ccccc2)[C@@H]2CCC(F)(F)C2)c1C [Compound No. 51, 3-Butyl-1-[3-({(2R)-2-[(1R)-3,3-difluorocyclopentyl]-2-hydroxy-2-phenylacetyl}oxy)propyl]-2-methyl-1H-imidazol-3-ium bromide] | 0.1 to 3.16 nM
16 | Cc1n(CCOC(=O)[C@](O)(c2ccccc2)[C@@H]2CCC(F)(F)C2)cc[n+]1CC1CC1 [Compound No. 85, 3-(Cyclopropylmethyl)-1-[2-({(2R)-2-[(1R)-3,3-difluorocyclopentyl]-2-hydroxy-2-phenylacetyl}oxy)ethyl]-2-methyl-1H-imidazol-3-ium bromide] | 0.1 to 3.16 nM
17 | CCCC[n+]1ccn(CCCOC(=O)C(O)(c2cccs2)c2cccs2)c1C [Compound No. 95, 3-Butyl-1-{3-[2-hydroxy(di-2-thienyl)acetoxy]propyl}-2-methyl-1H-imidazol-3-ium bromide] | 0.1 to 3.16 nM
